≈ marks a conversion by molar mass, not a printed value. Calls of active or inactive are those of the source.
Experiments:
Plasmodium falciparum [1] = test: Antiplasmodial activity against Plasmodium falciparum 3D7 assessed as inhibition of parasite growth at 8.66 ug/ml by SYBR Green I dye based assay; assay type: functional, organism-based
Jurkat = test: Inhibition of cell proliferation of human Jurkat cells incubated for 72 hrs by Celltiter-Glo assay; assay type: functional, cell-based
Measles morbillivirus [2] = test: microbe, parasite or virus in culture; settings: rMV2/Luc, 24 h
Description: (§1) Antiviral activity against measles virus rMV2/Luc infected in HEK-293T cells assessed as inhibition of virus growth incubated for 24 hrs by firefly luciferase reporter gene assay

Measles morbillivirus [3] = tested on: Measles morbillivirus
Description: as §1

[4] = Half life in human microsomes; assay type: ADME, Microsome
[5] = molecular target: T1, Dihydroorotate dehydrogenase (quinone), mitochondrial (Plasmodium falciparum (isolate 3D7)) (UniProt Q08210); test: Inhibition of Plasmodium falciparum DHODH expressed in Escherichia coli by […]-based spectrophotometric method
T1 sequence (whole entry): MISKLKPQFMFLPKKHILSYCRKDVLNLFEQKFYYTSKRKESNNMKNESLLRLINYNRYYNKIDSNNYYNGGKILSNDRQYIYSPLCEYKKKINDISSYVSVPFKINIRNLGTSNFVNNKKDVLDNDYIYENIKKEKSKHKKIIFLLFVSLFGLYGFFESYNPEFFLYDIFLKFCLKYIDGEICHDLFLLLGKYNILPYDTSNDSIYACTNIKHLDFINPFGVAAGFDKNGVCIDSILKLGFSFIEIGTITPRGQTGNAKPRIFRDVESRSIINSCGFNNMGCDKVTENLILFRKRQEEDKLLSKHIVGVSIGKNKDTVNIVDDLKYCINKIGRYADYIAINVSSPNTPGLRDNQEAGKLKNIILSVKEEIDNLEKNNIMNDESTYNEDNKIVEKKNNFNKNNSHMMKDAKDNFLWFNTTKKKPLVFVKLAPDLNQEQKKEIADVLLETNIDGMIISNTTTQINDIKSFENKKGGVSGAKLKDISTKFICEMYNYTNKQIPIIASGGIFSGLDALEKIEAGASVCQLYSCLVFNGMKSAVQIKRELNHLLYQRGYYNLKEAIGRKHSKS

Plasmodium falciparum [6] = test: Antiplasmodial activity against Plasmodium falciparum 3D7 assessed as inhibition of parasite growth by SYBR Green I dye based assay; assay type: functional, organism-based

Structure (SMILES) | growth inhibition (GI) (Plasmodium falciparum [1]) | IC50 (Jurkat) | MIC50 (Measles morbillivirus [2]) | pMIC50 (Measles morbillivirus [3]) | t1/2 [4] | inhibition [5] | IC50 (Plasmodium falciparum [6])
C/C(O)=C(\C#N)C(=O)Nc1ccc(C(F)(F)F)cc1 [TERIFLUNOMIDE] | inactive | 60000 nM | 5 µM (≈ 1.35 µg/mL) | – | – | – | –
Cc1c(Oc2c(F)cccc2F)c(OC(C)C)nn1-c1ncc(Br)cc1F | inactive | – | – | 6.9 | 60 min | – | –
Cc1c(Oc2c(F)cccc2F)c(OC(C)C)nn1-c1ncc(C2CC2)cc1O | inactive | – | – | 8.1 | 38 min | – | –
Cc1ccc(-n2nc(OC(C)C)c(Oc3c(F)cccc3F)c2C)nn1 | – | – | – | – | – | inactive | 470 nM
Cc1c(Oc2c(F)cccc2F)c(OC(C)C)nn1-c1ccc(C2CC2)cn1 | inactive | – | – | 9 | 6 min | – | –
Cc1c(Oc2ccccc2F)c(OC(C)C)nn1-c1ccc(C2CC2)cn1 | inactive | – | – | 7.4 | 4 min | – | –
COc1ccc(-n2nc(OC(C)C)c(Oc3c(F)cccc3F)c2C)nn1 | inactive | – | – | 7.1 | 22 min | – | –
Cc1c(Oc2c(F)cccc2F)c(OC(C)C)nn1-c1ccc(C2CC2)nn1 | – | – | – | – | – | inactive | 330 nM
Cc1c(Oc2cccc(F)c2F)c(OC(C)C)nn1-c1ccc(C2CC2)cn1 | inactive | – | – | 7.4 | – | – | –
COc1cnc(-n2nc(OC(C)C)c(Oc3c(F)cccc3F)c2C)cn1 | inactive | – | – | 6.1 | – | – | –
CCOc1nn(-c2ccc(C3CC3)cn2)c(C)c1Oc1ccccc1 | inactive | – | – | 7 | – | – | –
